Reference: ChEMBL document CHEMBL4507268 (2021)

Legend:
Settings in all cases: Compound concentration 1000.0 nM
[1] = target: Casein kinase I isoform epsilon (Homo sapiens) (UniProt P49674)
[2] = target: Ephrin type-A receptor 7 (Homo sapiens) (UniProt Q15375)
[3] = target: Macrophage colony-stimulating factor 1 receptor (Homo sapiens) (UniProt P07333)
[4] = target: T1, Serine/threonine-protein kinase haspin (Homo sapiens) (UniProt Q8TF76)
T1 sequence (whole entry): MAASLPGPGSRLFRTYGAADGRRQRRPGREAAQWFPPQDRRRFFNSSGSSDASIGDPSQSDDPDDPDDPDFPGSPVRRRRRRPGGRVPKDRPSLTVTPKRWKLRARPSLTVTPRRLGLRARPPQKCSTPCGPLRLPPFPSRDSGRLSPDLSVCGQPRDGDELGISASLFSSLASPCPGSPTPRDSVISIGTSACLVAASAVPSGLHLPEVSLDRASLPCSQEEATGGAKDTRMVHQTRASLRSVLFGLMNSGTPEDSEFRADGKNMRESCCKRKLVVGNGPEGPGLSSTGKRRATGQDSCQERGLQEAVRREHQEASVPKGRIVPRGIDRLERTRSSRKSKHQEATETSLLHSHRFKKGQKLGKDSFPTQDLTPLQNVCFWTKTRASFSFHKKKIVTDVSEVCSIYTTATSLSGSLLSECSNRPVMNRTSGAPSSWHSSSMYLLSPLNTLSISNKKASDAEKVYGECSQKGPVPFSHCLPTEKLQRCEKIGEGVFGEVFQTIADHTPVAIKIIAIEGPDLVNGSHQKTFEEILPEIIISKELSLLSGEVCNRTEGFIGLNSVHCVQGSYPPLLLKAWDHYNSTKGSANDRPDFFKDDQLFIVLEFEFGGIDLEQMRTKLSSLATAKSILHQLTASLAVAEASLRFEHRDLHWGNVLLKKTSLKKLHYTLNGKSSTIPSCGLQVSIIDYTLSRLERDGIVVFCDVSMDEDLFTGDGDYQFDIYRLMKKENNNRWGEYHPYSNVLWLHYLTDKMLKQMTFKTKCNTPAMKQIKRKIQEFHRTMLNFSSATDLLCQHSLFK

[5] = target: T2, Serine/threonine-protein kinase Sgk1 (Homo sapiens) (UniProt O00141)
T2 sequence (whole entry): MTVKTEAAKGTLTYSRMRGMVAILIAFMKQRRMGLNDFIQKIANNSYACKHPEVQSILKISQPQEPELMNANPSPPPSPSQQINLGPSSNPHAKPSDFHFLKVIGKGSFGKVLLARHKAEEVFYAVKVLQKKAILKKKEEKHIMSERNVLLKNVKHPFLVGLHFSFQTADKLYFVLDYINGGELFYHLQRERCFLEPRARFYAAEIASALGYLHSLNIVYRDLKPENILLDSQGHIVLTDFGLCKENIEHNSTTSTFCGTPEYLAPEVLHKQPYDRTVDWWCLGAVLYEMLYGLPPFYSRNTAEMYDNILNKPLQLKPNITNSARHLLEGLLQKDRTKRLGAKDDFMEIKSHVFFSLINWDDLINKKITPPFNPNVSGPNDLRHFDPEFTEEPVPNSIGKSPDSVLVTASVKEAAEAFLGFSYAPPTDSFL

[6] = target: Serine/threonine-protein kinase 38-like (Homo sapiens) (UniProt Q9Y2H1)
Sequence of Serine/threonine-protein kinase 38-like (Homo sapiens) (Q9Y2H1 2-464 limits assumed): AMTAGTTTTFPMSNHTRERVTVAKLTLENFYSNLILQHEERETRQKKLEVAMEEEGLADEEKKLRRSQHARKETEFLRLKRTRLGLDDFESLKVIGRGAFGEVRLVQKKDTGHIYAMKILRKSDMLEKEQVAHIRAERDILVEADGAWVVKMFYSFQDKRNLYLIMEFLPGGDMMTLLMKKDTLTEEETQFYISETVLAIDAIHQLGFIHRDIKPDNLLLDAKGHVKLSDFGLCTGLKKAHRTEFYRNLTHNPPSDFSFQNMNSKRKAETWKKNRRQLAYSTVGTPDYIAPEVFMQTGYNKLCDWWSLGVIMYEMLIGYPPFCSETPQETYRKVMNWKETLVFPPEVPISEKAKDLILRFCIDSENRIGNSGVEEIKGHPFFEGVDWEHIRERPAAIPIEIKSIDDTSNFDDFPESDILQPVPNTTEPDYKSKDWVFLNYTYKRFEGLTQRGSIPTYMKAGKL

[7] = target: T3, Serine/threonine-protein kinase Nek9 (Homo sapiens) (UniProt Q8TD19)
T3 sequence (whole entry): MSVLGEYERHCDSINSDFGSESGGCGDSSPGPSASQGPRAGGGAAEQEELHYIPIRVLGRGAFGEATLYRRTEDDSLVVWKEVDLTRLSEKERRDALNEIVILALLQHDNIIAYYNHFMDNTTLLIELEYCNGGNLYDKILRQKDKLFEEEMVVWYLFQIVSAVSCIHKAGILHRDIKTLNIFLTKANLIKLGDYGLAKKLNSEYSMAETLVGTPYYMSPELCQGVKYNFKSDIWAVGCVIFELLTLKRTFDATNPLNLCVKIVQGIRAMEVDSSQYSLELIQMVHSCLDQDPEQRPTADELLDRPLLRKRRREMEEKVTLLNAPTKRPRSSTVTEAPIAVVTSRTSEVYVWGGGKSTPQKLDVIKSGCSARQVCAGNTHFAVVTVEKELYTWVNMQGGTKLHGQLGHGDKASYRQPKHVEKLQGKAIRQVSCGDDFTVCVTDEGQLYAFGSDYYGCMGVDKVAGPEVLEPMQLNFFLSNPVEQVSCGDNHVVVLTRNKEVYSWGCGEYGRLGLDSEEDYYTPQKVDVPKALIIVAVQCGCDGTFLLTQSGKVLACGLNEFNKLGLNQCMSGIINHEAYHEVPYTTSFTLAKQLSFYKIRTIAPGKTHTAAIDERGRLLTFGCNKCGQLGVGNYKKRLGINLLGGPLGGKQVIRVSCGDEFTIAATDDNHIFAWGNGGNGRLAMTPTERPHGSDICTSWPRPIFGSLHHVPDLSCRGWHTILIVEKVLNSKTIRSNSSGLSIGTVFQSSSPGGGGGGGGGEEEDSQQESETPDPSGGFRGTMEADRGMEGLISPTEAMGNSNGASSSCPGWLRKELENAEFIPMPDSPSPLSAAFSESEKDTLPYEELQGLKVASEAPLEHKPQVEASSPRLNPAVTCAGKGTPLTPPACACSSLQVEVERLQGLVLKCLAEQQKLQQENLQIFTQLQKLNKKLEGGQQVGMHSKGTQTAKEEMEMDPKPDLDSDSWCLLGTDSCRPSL

[8] = target: T4, Serine/threonine-protein kinase ULK3 (Homo sapiens) (UniProt Q6PHR2)
T4 sequence (whole entry): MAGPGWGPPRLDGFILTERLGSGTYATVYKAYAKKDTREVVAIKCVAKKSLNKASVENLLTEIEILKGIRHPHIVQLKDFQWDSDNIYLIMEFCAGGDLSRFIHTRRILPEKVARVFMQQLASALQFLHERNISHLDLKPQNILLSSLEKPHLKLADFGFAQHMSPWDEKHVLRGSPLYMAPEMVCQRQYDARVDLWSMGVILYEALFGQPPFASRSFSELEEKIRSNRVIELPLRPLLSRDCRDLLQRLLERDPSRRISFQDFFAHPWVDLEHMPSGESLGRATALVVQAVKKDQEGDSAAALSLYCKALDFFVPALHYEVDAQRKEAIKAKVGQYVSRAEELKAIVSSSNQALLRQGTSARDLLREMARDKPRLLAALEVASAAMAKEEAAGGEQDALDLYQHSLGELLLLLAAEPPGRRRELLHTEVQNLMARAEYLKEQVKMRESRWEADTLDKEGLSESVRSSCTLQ

[9] = target: Vascular endothelial growth factor receptor 3 (Homo sapiens) (UniProt P35916)
Sequence of Vascular endothelial growth factor receptor 3 (Homo sapiens) (P35916 whole entry): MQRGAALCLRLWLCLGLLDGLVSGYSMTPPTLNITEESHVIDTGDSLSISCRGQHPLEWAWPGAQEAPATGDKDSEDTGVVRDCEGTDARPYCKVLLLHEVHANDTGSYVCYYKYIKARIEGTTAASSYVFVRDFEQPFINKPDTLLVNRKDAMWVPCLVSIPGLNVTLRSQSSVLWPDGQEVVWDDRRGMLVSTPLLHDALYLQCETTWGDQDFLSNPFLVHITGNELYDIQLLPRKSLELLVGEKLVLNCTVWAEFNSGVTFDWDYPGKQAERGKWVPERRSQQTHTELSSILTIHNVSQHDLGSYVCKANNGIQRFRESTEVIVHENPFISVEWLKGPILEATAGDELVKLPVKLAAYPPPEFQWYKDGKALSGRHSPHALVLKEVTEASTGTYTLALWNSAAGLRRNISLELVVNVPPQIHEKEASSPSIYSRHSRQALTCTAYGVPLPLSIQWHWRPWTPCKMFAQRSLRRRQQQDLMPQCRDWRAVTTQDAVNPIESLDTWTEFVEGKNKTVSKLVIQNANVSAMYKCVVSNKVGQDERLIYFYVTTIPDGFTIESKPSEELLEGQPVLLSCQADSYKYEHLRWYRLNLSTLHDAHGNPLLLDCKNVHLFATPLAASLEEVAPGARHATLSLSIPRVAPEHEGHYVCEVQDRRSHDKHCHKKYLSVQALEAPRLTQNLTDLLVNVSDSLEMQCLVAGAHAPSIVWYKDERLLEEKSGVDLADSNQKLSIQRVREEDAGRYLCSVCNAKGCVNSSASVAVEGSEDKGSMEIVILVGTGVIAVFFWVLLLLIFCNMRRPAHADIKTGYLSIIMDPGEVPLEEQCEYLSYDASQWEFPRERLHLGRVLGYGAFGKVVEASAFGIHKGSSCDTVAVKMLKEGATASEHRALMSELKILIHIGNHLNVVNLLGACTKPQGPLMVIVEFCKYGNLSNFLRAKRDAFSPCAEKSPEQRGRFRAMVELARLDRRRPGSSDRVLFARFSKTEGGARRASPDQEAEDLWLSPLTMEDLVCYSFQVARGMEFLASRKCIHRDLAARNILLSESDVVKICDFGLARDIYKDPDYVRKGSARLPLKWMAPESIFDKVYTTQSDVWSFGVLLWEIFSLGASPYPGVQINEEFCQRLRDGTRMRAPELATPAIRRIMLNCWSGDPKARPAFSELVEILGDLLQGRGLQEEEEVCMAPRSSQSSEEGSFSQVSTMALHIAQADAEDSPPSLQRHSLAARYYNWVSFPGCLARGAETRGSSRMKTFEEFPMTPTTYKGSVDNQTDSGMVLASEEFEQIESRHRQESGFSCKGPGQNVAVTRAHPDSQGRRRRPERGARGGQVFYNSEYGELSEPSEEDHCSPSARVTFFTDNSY

Sequence of Casein kinase I isoform epsilon (Homo sapiens) (P49674 whole entry, looked up, canonical isoform): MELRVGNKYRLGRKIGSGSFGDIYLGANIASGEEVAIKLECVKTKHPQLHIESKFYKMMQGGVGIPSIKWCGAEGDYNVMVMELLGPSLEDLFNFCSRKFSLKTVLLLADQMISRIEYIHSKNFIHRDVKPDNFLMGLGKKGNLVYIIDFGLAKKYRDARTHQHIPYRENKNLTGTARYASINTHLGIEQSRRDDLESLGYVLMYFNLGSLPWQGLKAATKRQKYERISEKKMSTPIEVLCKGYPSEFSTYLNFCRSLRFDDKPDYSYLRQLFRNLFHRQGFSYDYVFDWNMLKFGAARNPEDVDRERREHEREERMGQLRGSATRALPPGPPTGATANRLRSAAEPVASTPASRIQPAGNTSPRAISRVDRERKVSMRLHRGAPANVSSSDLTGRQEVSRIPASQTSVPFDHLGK
Sequence of Macrophage colony-stimulating factor 1 receptor (Homo sapiens) (P07333 whole entry): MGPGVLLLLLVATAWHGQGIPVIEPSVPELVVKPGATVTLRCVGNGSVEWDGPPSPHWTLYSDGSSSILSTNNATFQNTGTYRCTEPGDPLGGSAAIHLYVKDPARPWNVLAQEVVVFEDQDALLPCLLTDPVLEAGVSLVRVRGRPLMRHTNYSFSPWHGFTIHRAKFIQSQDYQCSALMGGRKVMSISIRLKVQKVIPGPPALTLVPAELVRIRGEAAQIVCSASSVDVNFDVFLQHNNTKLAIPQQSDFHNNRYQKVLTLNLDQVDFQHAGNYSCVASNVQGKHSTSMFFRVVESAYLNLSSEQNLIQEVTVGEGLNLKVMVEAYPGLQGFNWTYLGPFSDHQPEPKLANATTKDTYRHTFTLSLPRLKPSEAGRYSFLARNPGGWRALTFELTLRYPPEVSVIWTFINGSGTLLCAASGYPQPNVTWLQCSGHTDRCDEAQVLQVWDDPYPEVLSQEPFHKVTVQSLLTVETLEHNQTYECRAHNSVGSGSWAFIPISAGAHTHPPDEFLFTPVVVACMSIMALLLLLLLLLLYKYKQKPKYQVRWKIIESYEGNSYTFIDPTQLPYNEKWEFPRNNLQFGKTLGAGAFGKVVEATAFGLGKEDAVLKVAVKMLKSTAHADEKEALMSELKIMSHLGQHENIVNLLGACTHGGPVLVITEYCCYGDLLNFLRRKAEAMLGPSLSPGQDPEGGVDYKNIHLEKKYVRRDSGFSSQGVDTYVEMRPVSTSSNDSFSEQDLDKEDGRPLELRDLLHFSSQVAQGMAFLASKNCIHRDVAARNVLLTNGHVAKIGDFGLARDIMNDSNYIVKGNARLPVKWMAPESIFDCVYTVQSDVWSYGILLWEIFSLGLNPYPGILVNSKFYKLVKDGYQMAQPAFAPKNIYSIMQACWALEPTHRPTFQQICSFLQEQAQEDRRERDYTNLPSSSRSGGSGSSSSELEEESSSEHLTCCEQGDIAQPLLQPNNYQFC
Sequence of Ephrin type-A receptor 7 (Homo sapiens) (Q15375 28-998 limits assumed): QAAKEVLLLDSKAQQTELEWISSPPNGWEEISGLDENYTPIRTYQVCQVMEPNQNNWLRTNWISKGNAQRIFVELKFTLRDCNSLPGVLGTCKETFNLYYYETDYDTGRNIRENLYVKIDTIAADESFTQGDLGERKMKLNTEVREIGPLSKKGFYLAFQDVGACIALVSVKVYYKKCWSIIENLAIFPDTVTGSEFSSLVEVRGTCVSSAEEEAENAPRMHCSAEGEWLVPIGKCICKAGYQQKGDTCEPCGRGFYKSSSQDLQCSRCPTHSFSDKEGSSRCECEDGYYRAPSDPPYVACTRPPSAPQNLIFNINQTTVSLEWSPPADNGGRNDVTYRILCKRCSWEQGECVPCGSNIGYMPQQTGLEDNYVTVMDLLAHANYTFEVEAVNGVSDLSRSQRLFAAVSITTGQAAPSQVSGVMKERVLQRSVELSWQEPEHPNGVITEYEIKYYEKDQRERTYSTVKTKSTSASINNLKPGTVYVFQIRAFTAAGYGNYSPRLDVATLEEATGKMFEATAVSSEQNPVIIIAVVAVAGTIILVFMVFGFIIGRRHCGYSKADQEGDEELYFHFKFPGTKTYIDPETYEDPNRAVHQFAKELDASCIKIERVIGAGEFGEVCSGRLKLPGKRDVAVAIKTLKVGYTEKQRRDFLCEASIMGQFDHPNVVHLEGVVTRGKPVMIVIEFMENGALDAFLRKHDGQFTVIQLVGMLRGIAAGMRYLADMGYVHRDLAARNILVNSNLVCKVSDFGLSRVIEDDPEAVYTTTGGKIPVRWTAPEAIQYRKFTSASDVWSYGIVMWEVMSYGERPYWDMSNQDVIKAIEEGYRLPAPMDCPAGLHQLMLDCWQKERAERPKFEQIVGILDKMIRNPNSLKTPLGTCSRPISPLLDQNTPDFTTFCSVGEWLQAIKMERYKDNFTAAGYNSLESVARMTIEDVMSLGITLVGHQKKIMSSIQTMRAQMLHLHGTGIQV

SMILES	residual activity [1]	residual activity [2]	residual activity [3]	residual activity [4]	residual activity [5]	residual activity [6]	residual activity [7]	residual activity [8]	residual activity [9]
Cc1nc(C2CCN(C(=O)c3ccc(OC(F)(F)F)cc3N)CC2)c2ncc(N3CCN(C)CC3)cc2n1 [BAY-693]	100%	92%	99%	100%	100%	100%	94%	46%	75%
CN1CCN(c2cnc3c(C4CCN(C(=O)c5ccc(OC(F)(F)F)cc5N)CC4)ncnc3c2)CC1 [BAY-885]	100%	100%	100%	100%	100%	100%	100%	100%	100%
